Assay results from patent US20260335282A1, “NOVEL 3-ARYLIDENE-2-INDOLINONE DERIVATIVES FOR THERAPEUTIC USE” (ISTANBUL UNIVERSITESI REKTORLUGU, priority 2022, published 2026).
Where “and” joins values, the source holds several entries; their conditions need not be identical. Equal values may be shown once. Read-outs that look alike come from different tables or passages of the source.

Tests used:
Assay type in all cases: cell-based, human
[1] = system: MCF-7 cells; experiment: MTT cytotoxicity, breast cancer cells MCF-7; conditions: MTT
Text: (§1) The cytotoxicity, general tyrosine kinase inhibitory effects and cell death (apoptosis/necrosis) assays of 1-benzyl-3-(1H-indol-3-ylmethylidene)-1,3-dihydro-2H-indol-2-one derivatives (Formula 5) of the present invention are studied by the following methods. […] HUVEC (human umbilical vein endothelial cell), MCF-10F (human breast epithelial cell) and Beas2b (human lung bronchial epithelial cell) cell lines have been used as healthy control cells in MTT experiments.
(§2) Beas2b (human lung bronchiole epithelial cell) and HEK293 (renal tubule epithelium) cells used as normal cell lines were cultured in RPMI medium, and HUVEC (human umbilical cord endothelial cells) and MCF-10F (human breast epithelial cell) cells are cultured in DMEM medium containing 100 µg/ml penicillin/streptomycin. The cells, which covered 70% of the culture flask, are washed with phosphate buffer and then removed from the surface of the flask by application of trypsin-ethylenediamine tetraacetic acid (Trypsin-EDTA; 0.25%) solution, passaged, counted and seeded on appropriate plates before each experiment. Cells are treated with a total of 45 2-indolinone compounds (5) at concentrations of 0.1, 1, 5 and 10 μM. Stock compounds are prepared in 1 ml dimethylsulfoxide (DMSO) and 4 different dilutions were prepared with medium and performed to the cells. Control group cells are treated with DMSO at a similar concentration to the experimental groups.
(§3) MTT (3-(4,5-dimethylthiazol-2-yl)-2,5-diphenyl-2H-tetrazolium bromide) colorimetric assay provides quantitation of viable cells with ongoing mitochondrial activity in culture medium. According to the standard procedure in cell culture conditions, cells are maintained in RPMI-1640 and DMEM culture media containing 10% FBS and 1% penicillin/streptomycin. The trypan blue test is used for cell counts.
(§4) The effects of 45 2-indolinone compounds (5) on cell viability in all cancer cell lines are investigated by MTT assay. Cells are seeded in a 96-well flat bottom plate with 5000 cells in each well and 2-indolinone compounds (5) at concentrations of 0.1, 1, 5 and 10 μM are performed to the cells the next day. After 48 and/or 72 hours following treatment with 2-indolinone compounds, 50 μl of the supernatant is slowly discarded (as it was acid medium) and MTT at a concentration of 5 mg/ml is added to each well in a volume of 10 μl. After incubation for 4 hours, the formazan crystals formed in the wells are dissolved by adding 100 μl DMSO and the optical density is read at 570 nm test wavelength and 630 nm reference wavelength. Cell viability is expressed as % cell viability by comparing the absorbance of control and test wells. IC50 value is calculated from the dose-response curves prepared for each compound. In addition, the possible DMSO effect is eliminated by preparing negative control wells compatible with the amount of DMSO contained in the compounds. To understand the reaction of the compounds with MTT, cell-free (MTT+compounds) negative controls are prepared at the concentrations used (Mosmann, 1983). […] The absorbance values obtained are compared to the control and statistically evaluated by unpaired t-test using “Graphpad Prism 5.04” software. “P<0.05” is accepted as significant. When evaluating cytotoxic effects, the present inventors aim for the inventive compounds to be effective in cancer cells and ineffective in healthy cells. The inventive compounds have also been compared with sunitinib, one of the reference chemotherapy drugs currently used in treatment.
(§5) Among the compounds of the present invention, those that killed cancer cells by at least 50% (p<0.05) are selected and tested whether a 10-fold concentration of the M concentration at the IC50 value is toxic to normal healthy cells.

[2] = system: MDA-MB-231 cells; experiment: MTT cytotoxicity, breast cancer cells MDA-MB-231; conditions: read-out: IC50, MDA-MB-231 (breast), MTT
Text: as §1, §2, §3, §4, §5

[3] = system: A549 cells; experiment: MTT cytotoxicity, lung cancer cells A549; conditions: no * mark (incubation time not specified)
Text: as §1, §2, §3, §4, §5

[4] = system: CAKI-1 cells; experiment: MTT cytotoxicity, kidney cancer cells CAKI-1
Text: as §1, §2, §3, §4, §5

[5] = system: A498 cells; experiment: MTT cytotoxicity, kidney cancer cells A498; conditions: MTT
Text: as §1, §2, §3, §4, §5

[6] = system: MCF-10F/Beas2b cells; experiment: MTT cytotoxicity, healthy cells MCF-10F/Beas2b; conditions: for Selectivite Index, MCF-10F/Beas2b (Table 2): MCF-10F/Beas2b vs colon or pancreas cancer cells; for Selectivite Index, MCF-10F/Beas2b (Table 2) / Selectivite Index (SI), MCF-10F/Beas2b (Table 1): cancer line not given; for IC50: MTT; for Selectivite Index (SI), MCF-10F/Beas2b (Table 1): MCF-10F/Beas2b vs breast or kidney cancer cells
Text: as §1, §2, §3, §4, §5

[7] = system: HUVEC cells; experiment: MTT cytotoxicity, healthy cells HUVEC; conditions: for Selectivite Index, HUVEC (Table 2): HUVEC vs colon or pancreas cancer cells; for Selectivite Index, HUVEC (Table 2) / Selectivite Index (SI), HUVEC (Table 1): cancer line not given; for IC50: MTT, no * mark (incubation time not specified); for Selectivite Index (SI), HUVEC (Table 1): HUVEC vs breast or kidney cancer cells
Text: as §1, §2, §3, §4, §5

[8] = system: HT-29 cells; experiment: MTT cytotoxicity, colon cancer cells HT-29; conditions: MTT, no * mark (incubation time not specified)
Text: as §1, §2, §3, §4

[9] = system: HCT-116 cells; experiment: MTT cytotoxicity, colon cancer cells HCT-116; conditions: no * mark (incubation time not specified)
Text: as §1, §2, §3, §4

[10] = system: MIAPaCa-2 cells; experiment: MTT cytotoxicity, pancreas cancer cells MIAPaCa-2; conditions: MTT
Text: as §1, §2, §3, §4

[11] = *: effective 72 hours after incubation
[12] = no * mark (incubation time not given)
[13] = no * mark (incubation time not specified)

SMILES: Cc1cccc(CN2C(=O)/C(=C\c3c[nH]c4ccccc34)c3ccccc32)c1 [50C]
- IC50 [1, 11]: 4.15 µM
- IC50 [2, 12]: 4.3 µM
- IC50 [3]: 4.6 µM
- IC50 [4, 13]: 4.96 µM
- IC50 [5, 11]: 3.85 µM
- Selectivite Index, MCF-10F/Beas2b (Table 2) [6]: 8.74
- IC50 [6, 13]: 4.37 µM
- Selectivite Index, HUVEC (Table 2) [7]: 1.72
- IC50 [7]: 0.86 µM
- IC50 [8]: 1.49 µM
- IC50 [9]: 0.5 µM
- IC50 [10, 13]: 2.96 µM

SMILES: O=C1/C(=C\c2c[nH]c3ccccc23)c2cccc(F)c2N1Cc1ccc(F)cc1 [31C]
- IC50 [1, 13]: 7.1 µM
- IC50 [2, 11]: 9.09 µM
- IC50 [3]: 3.64 µM
- IC50 [4, 11]: 9.14 µM
- IC50 [5, 13]: 2.85 µM
- Selectivite Index, MCF-10F/Beas2b (Table 2) [6]: 11.33 and 6.05
- IC50 [6, 13]: 4.42 µM
- Selectivite Index, HUVEC (Table 2) [7]: 3.23 and 1.72
- IC50 [7]: 1.26 µM
- IC50 [8]: 3.95 µM
- IC50 [9]: 0.39 µM
- IC50 [10, 13]: 0.73 µM

SMILES: Cc1ccc(CN2C(=O)/C(=C\c3c[nH]c4ccccc34)c3cccc(Cl)c32)cc1 [28C]
- IC50 [1, 13]: > 10 µM
- IC50 [2, 12]: > 10 µM
- IC50 [3]: > 10 µM
- IC50 [4, 11]: 7.66 µM
- IC50 [5, 11]: 0.6 µM
- Selectivite Index (SI), MCF-10F/Beas2b (Table 1) [6]: 1.5
- IC50 [6, 11]: 1.78 µM
- Selectivite Index (SI), HUVEC (Table 1) [7]: > 15.6
- IC50 [7]: > 10 µM
- IC50 [8]: > 10 µM
- IC50 [9]: > 10 µM
- IC50 [10, 13]: > 10 µM

SMILES: Cc1ccc(CN2C(=O)/C(=C\c3c[nH]c4ccccc34)c3cc(Cl)ccc32)cc1 [Y22]
- IC50 [1, 13]: > 10 µM
- IC50 [2, 12]: > 10 µM
- IC50 [3]: > 10 µM
- IC50 [4, 13]: > 10 µM
- IC50 [5, 13]: > 10 µM
- IC50 [6, 13]: 1.1 µM
- IC50 [7]: 2.34 µM
- IC50 [8]: > 10 µM
- IC50 [9]: 2.34 µM
- IC50 [10, 13]: 0.49 µM

SMILES: O=C1/C(=C\c2c[nH]c3ccccc23)c2cc(OC(F)(F)F)ccc2N1Cc1cccc(F)c1 [2C]
- IC50 [1, 13]: 8.82 µM
- IC50 [2, 12]: 2.91 µM
- IC50 [3]: 3.58 µM
- IC50 [4, 11]: 5.46 µM
- IC50 [5, 13]: 4.78 µM
- IC50 [6, 13]: 3.07 µM
- IC50 [7]: 2.56 µM
- IC50 [8]: > 10 µM
- IC50 [9]: 2.88 µM
- IC50 [10, 11]: 7.35 µM

SMILES: Cc1ccc(CN2C(=O)/C(=C\c3c[nH]c4ccccc34)c3cc(F)ccc32)cc1 [Y25]
- IC50 [1, 11]: 4.83 µM
- IC50 [2, 12]: 3.4 µM
- IC50 [3]: 3.31 µM
- IC50 [4, 11]: 7 µM
- IC50 [5, 13]: 3.15 µM
- IC50 [6, 13]: 2.72 µM
- IC50 [7]: 0.13 µM
- IC50 [8]: > 10 µM
- IC50 [9]: 1.46 µM
- IC50 [10, 13]: 1.14 µM

SMILES: O=C1C(=Cc2c[nH]c3ccccc23)c2cc(Cl)ccc2N1Cc1cccc(Cl)c1 [18C]
- IC50 [1, 13]: 5.53 µM
- IC50 [2, 12]: 7.99 µM
- IC50 [3]: 6.57 µM
- IC50 [4, 13]: 3.46 µM
- IC50 [5, 13]: 1.75 µM
- IC50 [6, 13]: 1.07 µM
- IC50 [7]: 1.07 µM
- IC50 [8]: 3.12 µM
- IC50 [9]: 3.94 µM
- IC50 [10, 11]: 1.54 µM

SMILES: O=C1/C(=C\c2c[nH]c3ccccc23)c2cc(OC(F)(F)F)ccc2N1Cc1cccc(Cl)c1 [4C]
- IC50 [1, 11]: 3.06 µM
- IC50 [2, 11]: 3.07 µM
- IC50 [3]: 2.42 µM
- IC50 [4, 11]: 2.79 µM
- IC50 [5, 13]: 3.05 µM
- IC50 [6, 13]: 1.73 µM
- IC50 [7]: 0.97 µM
- IC50 [8]: > 10 µM
- IC50 [9]: 1.13 µM
- IC50 [10, 11]: 3.67 µM

SMILES: Cc1cccc(CN2C(=O)C(=Cc3c[nH]c4ccccc34)c3cccc(F)c32)c1 [34C]
- IC50 [1, 13]: > 10 µM
- IC50 [2, 12]: > 10 µM
- IC50 [3]: 4.7 µM
- IC50 [4, 13]: 7.61 µM
- IC50 [5, 13]: 3.64 µM
- IC50 [6, 13]: 4.1 µM
- IC50 [7]: 1.69 µM
- IC50 [8]: > 10 µM
- IC50 [9]: 0.64 µM
- IC50 [10, 13]: > 10 µM

SMILES: O=C1/C(=C\c2c[nH]c3ccccc23)c2cc(OC(F)(F)F)ccc2N1Cc1ccc(Cl)cc1 [5C]
- IC50 [1, 11]: 3.84 µM
- IC50 [2, 11]: 5.8 µM
- IC50 [3]: 2.96 µM
- IC50 [4, 11]: 6.98 µM
- IC50 [5, 11]: 2.26 µM
- Selectivite Index, MCF-10F/Beas2b (Table 2) [6]: 7.86
- IC50 [6, 13]: 3.46 µM
- Selectivite Index, HUVEC (Table 2) [7]: 6.18
- IC50 [7]: 2.72 µM
- IC50 [8]: 0.44 µM
- IC50 [9]: 1.97 µM
- IC50 [10, 13]: > 10 µM

SMILES: Cc1ccc2c(c1)/C(=C/c1c[nH]c3ccccc13)C(=O)N2Cc1ccc(Cl)cc1 [47C]
- IC50 [1, 13]: 5 µM
- IC50 [2, 12]: > 10 µM
- IC50 [3]: 2.65 µM
- IC50 [4, 13]: 4.66 µM
- IC50 [5, 11]: 0.9 µM
- Selectivite Index (SI), MCF-10F/Beas2b (Table 1) [6]: 2.88
- IC50 [6, 11]: 2.6 µM
- Selectivite Index (SI), HUVEC (Table 1) [7]: > 11.11
- IC50 [7]: > 10 µM
- IC50 [8]: > 10 µM
- IC50 [9]: > 10 µM
- IC50 [10, 13]: > 10 µM

SMILES: O=C1/C(=C\c2c[nH]c3ccccc23)c2cc(OC(F)(F)F)ccc2N1Cc1ccc(F)cc1 [3C]
- IC50 [1, 13]: 5.06 µM
- IC50 [2, 12]: 2.27 µM
- IC50 [3]: 4.22 µM
- IC50 [4, 13]: 3.7 µM
- IC50 [5, 11]: 7.53 µM
- IC50 [6, 13]: 2.98 µM
- IC50 [7]: 4.3 µM
- IC50 [8]: 1.38 µM
- IC50 [9]: 5.74 µM
- IC50 [10, 11]: 0.95 µM

SMILES: O=C1/C(=C\c2c[nH]c3ccccc23)c2cc(F)ccc2N1Cc1ccc(F)cc1 [10C]
- IC50 [1, 13]: > 10 µM
- IC50 [2, 11]: 8.13 µM
- IC50 [3]: 3.49 µM
- IC50 [4, 11]: 6.69 µM
- IC50 [5, 13]: 3.81 µM
- IC50 [6, 13]: 2.99 µM
- IC50 [7]: 4.65 µM
- IC50 [8]: 2.29 µM
- IC50 [9]: 3.96 µM
- IC50 [10, 13]: 2.77 µM
